# Earlier results in US20040234631A1, “Composition comprising soy and use thereof in the provention and/or treatment of various diseases” (priority 2001, published 2004).
# Legend:
# estrogenic effect = settings: in vitro, reported by Knight
# blood vessels = settings: very low concentration
Compound,relative estrogenic potency (estradiol = 100) (estrogenic effect),concentration causing dilation of blood vessels (blood vessels) [nM]
O=c1c(-c2ccc(O)cc2)coc2cc(O)ccc12 [daidzein],0.013,–
1-alkyl-2-acetyl analog of phosphatidyl choline [platelet-activating factor],–,0.1
